Patent US9340590B2 (priority 2011, dated 2016)
Where two headings read alike, the source gives them in different places. Positions of bridges follow the written chain, without caps; N, C: chain ends. Residues, ends and D or L forms follow the SMILES beside them.

Tests used:
Experiment in all cases: cell-based
[1] = molecular target: hNav1.7 (Homo sapiens, UniProt Q15858); assay type: cell-based; conditions: IonWorks Quattro, read-out: IWQ Use Nav1.7
[2] = molecular target: hNav1.5 (Homo sapiens, UniProt Q14524); conditions: IonWorks Quattro, read-out: IWQ Use Nav1.5
[3] = molecular target: hNav1.3 (Homo sapiens, UniProt Q9NY46); conditions: IonWorks Quattro, read-out: IWQ Use Nav1.3
hNav1.3, sequence (Q9NY46 whole entry, looked up): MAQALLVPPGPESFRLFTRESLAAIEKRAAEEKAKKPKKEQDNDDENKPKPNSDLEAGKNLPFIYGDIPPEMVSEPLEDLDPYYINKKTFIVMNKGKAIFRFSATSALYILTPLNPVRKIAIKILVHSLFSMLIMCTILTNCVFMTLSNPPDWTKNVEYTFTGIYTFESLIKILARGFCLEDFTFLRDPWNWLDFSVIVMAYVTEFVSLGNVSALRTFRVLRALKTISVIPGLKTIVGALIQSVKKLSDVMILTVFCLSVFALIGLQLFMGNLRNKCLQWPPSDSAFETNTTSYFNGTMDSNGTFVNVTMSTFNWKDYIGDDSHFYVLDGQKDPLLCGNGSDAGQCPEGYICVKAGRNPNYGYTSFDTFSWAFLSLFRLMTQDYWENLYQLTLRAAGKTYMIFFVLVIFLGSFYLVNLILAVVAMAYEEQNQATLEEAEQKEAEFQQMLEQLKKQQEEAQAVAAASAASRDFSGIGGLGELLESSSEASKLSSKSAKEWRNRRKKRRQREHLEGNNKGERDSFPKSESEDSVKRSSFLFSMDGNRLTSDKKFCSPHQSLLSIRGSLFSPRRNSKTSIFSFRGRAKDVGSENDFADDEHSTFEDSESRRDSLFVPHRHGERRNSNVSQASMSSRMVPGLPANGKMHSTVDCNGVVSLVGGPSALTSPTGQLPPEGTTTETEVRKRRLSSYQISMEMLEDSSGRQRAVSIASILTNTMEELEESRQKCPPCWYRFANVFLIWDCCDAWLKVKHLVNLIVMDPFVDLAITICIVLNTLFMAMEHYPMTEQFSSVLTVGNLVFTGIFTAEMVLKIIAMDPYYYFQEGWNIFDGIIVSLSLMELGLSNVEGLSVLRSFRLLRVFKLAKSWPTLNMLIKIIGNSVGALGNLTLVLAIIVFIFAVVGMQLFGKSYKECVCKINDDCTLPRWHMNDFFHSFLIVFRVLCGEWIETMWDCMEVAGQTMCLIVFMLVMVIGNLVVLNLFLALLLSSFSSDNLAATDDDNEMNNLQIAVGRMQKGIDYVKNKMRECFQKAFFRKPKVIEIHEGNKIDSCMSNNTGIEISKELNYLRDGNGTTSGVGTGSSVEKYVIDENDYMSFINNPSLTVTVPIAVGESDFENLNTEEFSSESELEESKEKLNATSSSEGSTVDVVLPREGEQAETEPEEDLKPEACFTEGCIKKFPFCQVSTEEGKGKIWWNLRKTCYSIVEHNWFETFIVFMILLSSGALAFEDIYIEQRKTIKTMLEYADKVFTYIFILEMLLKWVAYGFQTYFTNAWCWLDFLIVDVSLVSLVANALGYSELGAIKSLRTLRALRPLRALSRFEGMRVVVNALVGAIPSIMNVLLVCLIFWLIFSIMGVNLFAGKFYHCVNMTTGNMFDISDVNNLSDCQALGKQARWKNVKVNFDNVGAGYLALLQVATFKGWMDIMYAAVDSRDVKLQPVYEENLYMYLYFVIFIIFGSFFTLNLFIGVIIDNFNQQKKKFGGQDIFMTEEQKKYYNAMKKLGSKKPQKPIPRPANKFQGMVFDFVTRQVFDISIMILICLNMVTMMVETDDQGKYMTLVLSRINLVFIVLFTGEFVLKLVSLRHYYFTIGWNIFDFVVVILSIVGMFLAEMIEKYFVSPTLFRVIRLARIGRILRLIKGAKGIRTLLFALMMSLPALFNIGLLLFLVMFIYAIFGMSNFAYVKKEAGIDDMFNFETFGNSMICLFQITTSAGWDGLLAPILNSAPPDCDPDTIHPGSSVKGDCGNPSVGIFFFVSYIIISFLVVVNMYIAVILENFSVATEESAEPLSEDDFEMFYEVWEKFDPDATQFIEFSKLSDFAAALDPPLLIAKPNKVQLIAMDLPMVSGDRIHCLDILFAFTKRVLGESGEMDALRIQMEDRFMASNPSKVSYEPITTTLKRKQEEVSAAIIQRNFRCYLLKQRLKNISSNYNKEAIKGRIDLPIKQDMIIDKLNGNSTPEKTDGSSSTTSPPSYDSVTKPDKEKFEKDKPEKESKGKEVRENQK

[4] = use-dependent protocol, hNav1.7
[5] = use-dependent protocol, hNav1.5
[6] = use-dependent protocol, hNav1.3

hNav1.7, sequence (Q15858 whole entry, looked up): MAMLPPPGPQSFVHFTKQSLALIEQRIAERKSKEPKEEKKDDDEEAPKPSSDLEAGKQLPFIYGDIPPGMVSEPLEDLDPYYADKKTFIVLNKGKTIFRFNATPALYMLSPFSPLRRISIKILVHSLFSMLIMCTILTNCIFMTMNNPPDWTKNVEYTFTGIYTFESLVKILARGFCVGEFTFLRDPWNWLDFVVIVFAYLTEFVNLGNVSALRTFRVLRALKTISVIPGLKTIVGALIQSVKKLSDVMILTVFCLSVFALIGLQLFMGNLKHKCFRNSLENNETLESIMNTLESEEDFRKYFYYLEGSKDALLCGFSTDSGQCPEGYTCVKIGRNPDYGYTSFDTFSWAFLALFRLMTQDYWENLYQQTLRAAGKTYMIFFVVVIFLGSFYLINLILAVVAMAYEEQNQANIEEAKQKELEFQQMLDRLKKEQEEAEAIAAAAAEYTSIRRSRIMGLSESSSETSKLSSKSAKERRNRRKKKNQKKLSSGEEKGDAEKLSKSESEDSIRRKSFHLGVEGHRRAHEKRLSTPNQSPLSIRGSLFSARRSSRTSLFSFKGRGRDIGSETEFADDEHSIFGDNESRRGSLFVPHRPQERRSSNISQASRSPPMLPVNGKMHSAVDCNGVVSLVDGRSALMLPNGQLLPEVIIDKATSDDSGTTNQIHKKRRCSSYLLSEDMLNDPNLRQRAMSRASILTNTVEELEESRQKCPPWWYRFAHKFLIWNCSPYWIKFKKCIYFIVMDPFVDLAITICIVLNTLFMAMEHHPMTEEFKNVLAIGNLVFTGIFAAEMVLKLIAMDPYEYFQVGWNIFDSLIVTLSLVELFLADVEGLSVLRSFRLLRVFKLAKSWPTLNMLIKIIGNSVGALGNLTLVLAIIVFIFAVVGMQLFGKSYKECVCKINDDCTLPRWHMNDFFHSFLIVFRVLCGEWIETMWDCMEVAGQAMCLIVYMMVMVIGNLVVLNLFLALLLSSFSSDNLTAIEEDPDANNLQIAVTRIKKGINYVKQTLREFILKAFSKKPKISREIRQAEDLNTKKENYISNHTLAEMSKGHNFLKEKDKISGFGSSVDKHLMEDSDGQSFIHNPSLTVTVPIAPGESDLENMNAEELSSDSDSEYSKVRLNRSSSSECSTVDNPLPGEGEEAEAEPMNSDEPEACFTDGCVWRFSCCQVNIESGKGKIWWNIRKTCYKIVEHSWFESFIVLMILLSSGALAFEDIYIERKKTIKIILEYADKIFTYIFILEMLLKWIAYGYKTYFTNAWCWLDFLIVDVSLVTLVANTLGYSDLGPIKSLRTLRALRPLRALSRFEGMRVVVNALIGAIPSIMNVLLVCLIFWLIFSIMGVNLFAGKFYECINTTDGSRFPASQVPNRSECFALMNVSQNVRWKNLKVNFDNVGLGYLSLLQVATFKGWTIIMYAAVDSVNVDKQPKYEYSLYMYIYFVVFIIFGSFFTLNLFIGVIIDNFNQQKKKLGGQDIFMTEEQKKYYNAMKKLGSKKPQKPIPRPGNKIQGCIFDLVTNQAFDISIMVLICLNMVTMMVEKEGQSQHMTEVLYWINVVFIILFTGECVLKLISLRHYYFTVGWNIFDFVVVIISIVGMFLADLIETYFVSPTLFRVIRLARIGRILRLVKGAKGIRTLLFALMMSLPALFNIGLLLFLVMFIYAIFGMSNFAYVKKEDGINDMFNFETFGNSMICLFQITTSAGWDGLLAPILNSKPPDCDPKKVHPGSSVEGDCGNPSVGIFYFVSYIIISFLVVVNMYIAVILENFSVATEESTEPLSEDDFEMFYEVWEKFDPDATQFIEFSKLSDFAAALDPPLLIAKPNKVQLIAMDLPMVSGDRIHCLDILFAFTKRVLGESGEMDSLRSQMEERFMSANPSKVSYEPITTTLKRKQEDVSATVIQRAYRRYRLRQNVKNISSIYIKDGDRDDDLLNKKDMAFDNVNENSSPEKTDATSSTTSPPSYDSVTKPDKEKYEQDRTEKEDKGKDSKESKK

Question: Which IC50 [1, 4] does the source give for `CC[C@H](C)[C@@H]1NC(=O)[C@@H]2CSSC[C@@H]3NC(=O)[C@H](C(C)C)NC(=O)[C@H](CC(C)C)NC(=O)[C@H](CC(N)=O)NC(=O)[C@@H]4CCCN4C(=O)[C@H](CCCNC(=N)N)NC(=O)[C@H](CSSC[C@H](NC(=O)[C@@H](N)CC(=O)O)C(=O)N[C@@H](CC(C)C)C(=O)NCC(=O)N[C@@H](Cc4ccc(F)cc4)C(=O)N[C@@H](CC(C)C)C(=O)N[C@@H](CCCNC(=N)N)C(=O)N[C@@H](CCCCN)C(=O)N2)NC(=O)[C@H](CSSC[C@@H](C(=O)N[C@@H](CCCCN)C(=O)N[C@@H](Cc2ccc(O)cc2)C(=O)N[C@H](C(=O)N[C@@H](Cc2ccccc2)C(N)=O)C(C)C)NC(=O)[C@H](Cc2c[nH]c4ccccc24)NC(=O)[C@H](CCCCN)NC(=O)[C@H](Cc2c[nH]cn2)NC(=O)[C@H]([C@@H](C)O)NC(=O)[C@H](CCCNC(=N)N)NC(=O)[C@H](CO)NC3=O)NC(=O)[C@H](CCCCN)NC(=O)[C@H](CC(=O)O)NC(=O)[C@H](CC(N)=O)NC(=O)[C@H](CC(=O)O)NC(=O)[C@@H]2CCCN2C1=O` [compound 669] here?
Answer: The IC50 was 0.091 µM.

Question: What about the IC50 [2, 5] of the same compound?
Answer: Its IC50 is > 5 µM.

Question: And the IC50 [3, 6]?
Answer: Its IC50 is 0.037 µM.

Question: Which results are given for `CC[C@H](C)[C@@H]1NC(=O)[C@@H]2CSSC[C@@H]3NC(=O)[C@H](C(C)C)NC(=O)[C@H](CC(C)C)NC(=O)[C@H](CC(N)=O)NC(=O)[C@@H]4CCCN4C(=O)[C@H](CCCNC(=N)N)NC(=O)[C@H](CSSC[C@H](NC(=O)[C@@H](N)CC(=O)O)C(=O)N[C@@H](CC(C)C)C(=O)NCC(=O)NCCC(=O)N[C@@H](CCSC)C(=O)N[C@@H](CCCNC(=N)N)C(=O)N[C@@H](CCCCN)C(=O)N2)NC(=O)[C@H](CSSC[C@@H](C(=O)N[C@@H](CCCCN)C(=O)N[C@@H](Cc2ccc(O)cc2)C(=O)N[C@H](C(=O)N[C@@H](Cc2ccccc2)C(N)=O)C(C)C)NC(=O)[C@H](Cc2c[nH]c4ccccc24)NC(=O)[C@H](CCCCN)NC(=O)[C@H](Cc2c[nH]cn2)NC(=O)[C@H]([C@@H](C)O)NC(=O)[C@H](CCCNC(=N)N)NC(=O)[C@H](CO)NC3=O)NC(=O)[C@H](CCCCN)NC(=O)[C@H](CC(=O)O)NC(=O)[C@H](CC(N)=O)NC(=O)[C@H](CC(=O)O)NC(=O)[C@@H]2CCCN2C1=O` [compound 648]?
Answer: IC50 [1, 4]: 4.7 µM; IC50 [2, 5]: > 5 µM; IC50 [3, 6]: > 5 µM

Question: `CC[C@H](C)[C@@H]1NC(=O)[C@@H]2CSSC[C@@H]3NC(=O)[C@H](C(C)C)NC(=O)[C@H](CC(C)C)NC(=O)[C@H](CC(N)=O)NC(=O)[C@@H]4CCCN4C(=O)[C@H](CCCNC(=N)N)NC(=O)[C@H](CSSC[C@H](NC(=O)[C@@H](N)CC(=O)O)C(=O)N[C@@H](CC(C)C)C(=O)NCC(=O)N[C@@H](C)C(=O)N[C@@H](CC(C)C)C(=O)N[C@@H](CCCNC(=N)N)C(=O)N[C@@H](CCCCN)C(=O)N2)NC(=O)[C@H](CSSC[C@@H](C(=O)N[C@@H](CCCCN)C(=O)N[C@@H](Cc2ccc(O)cc2)C(=O)N[C@H](C(=O)N[C@@H](Cc2ccccc2)C(=O)N[C@@H](Cc2ccccc2)C(=O)O)C(C)C)NC(=O)[C@H](Cc2c[nH]c4ccccc24)NC(=O)[C@H](CCCNC(=N)N)NC(=O)[C@H](Cc2c[nH]cn2)NC(=O)[C@H]([C@@H](C)O)NC(=O)[C@H](CCCNC(=N)N)NC(=O)[C@H](CO)NC3=O)NC(=O)[C@H](CCCCN)NC(=O)[C@H](CC(=O)O)NC(=O)[C@H](CC(N)=O)NC(=O)[C@H](CC(=O)O)NC(=O)[C@@H]2CCCN2C1=O` [compound 818] (H-DCLGALRKCIPDNDKCCRPNLVCSRTHRWCKYVFF-OH; disulfide 2-17, 9-23, 16-30) was tested. Which IC50 ([1]; use-dependent block, hNav1.7) did it give?
Answer: Its IC50 is 2.3 µM.

Question: And the IC50 ([2]; use-dependent block, hNav1.5)?
Answer: Its IC50 is > 5 µM.

Question: What about the IC50 ([3]; use-dependent block, hNav1.3) of the same compound?
Answer: The IC50 was 0.8 µM.

Question: What does the source list for `CC[C@H](C)[C@@H]1NC(=O)[C@@H]2CSSC[C@@H]3NC(=O)[C@H](C(C)C)NC(=O)[C@H](CC(C)C)NC(=O)[C@H](CC(N)=O)NC(=O)[C@@H]4CCCN4C(=O)[C@H](CCCNC(=N)N)NC(=O)[C@H](CSSC[C@H](NC(=O)[C@@H](N)CC(=O)O)C(=O)N[C@@H](CC(C)C)C(=O)NCC(=O)N[C@@H](Cc4ccccc4)C(=O)N[C@@H](CCSC)C(=O)N[C@@H](CCCNC(=N)N)C(=O)N[C@@H](CCCCN)C(=O)N2)NC(=O)[C@H](CSSC[C@@H](C(=O)N[C@@H](CCCCN)C(=O)N[C@@H](Cc2ccc(O)cc2)C(=O)N[C@H](C(=O)N[C@@H](Cc2ccccc2)C(N)=O)C(C)C)NC(=O)[C@H](C)NC(=O)[C@H](CCCCN)NC(=O)[C@H](Cc2cnc[nH]2)NC(=O)[C@H]([C@@H](C)O)NC(=O)[C@H](CCCNC(=N)N)NC(=O)[C@H](CO)NC3=O)NC(=O)[C@H](CCCCN)NC(=O)[C@H](CC(=O)O)NC(=O)[C@H](CC(N)=O)NC(=O)[C@H](CC(=O)O)NC(=O)[C@@H]2CCCN2C1=O` [compound 47] (H-DCLGFMRKCIPDNDKCCRPNLVCSRTHKACKYVF-NH2; disulfide 2-17, 9-23, 16-30)?
Answer: IC50 ([1]; Table 24, use, […]): 11.7 µM; IC50 ([2]; Table 24, use, […]): 16.2 µM; IC50 ([3]; Table 24, use, […]): 27.5 µM

Question: `CC[C@H](C)[C@@H]1NC(=O)[C@@H]2CSSC[C@@H]3NC(=O)[C@H](C(C)C)NC(=O)[C@H](CC(C)C)NC(=O)[C@H](CC(N)=O)NC(=O)[C@@H]4CCCN4C(=O)[C@H](CCCNC(=N)N)NC(=O)[C@H](CSSC[C@H](NC(=O)[C@@H](N)CC(=O)O)C(=O)N[C@@H](CC(C)C)C(=O)NCC(=O)N[C@@H](Cc4ccccc4)C(=O)N[C@@H](CCSC)C(=O)N[C@@H](CCCNC(=N)N)C(=O)N[C@@H](CCCCN)C(=O)N2)NC(=O)[C@H](CSSC[C@@H](C(=O)N[C@@H](CCCCN)C(=O)N[C@@H](Cc2c[nH]c4ccccc24)C(=O)N[C@H](C(=O)N[C@@H](Cc2ccccc2)C(N)=O)C(C)C)NC(=O)[C@H](Cc2c[nH]c4ccccc24)NC(=O)[C@H](CCCCN)NC(=O)[C@H](Cc2c[nH]cn2)NC(=O)[C@H](CC(C)C)NC(=O)[C@H](CCCNC(=N)N)NC(=O)[C@H](CO)NC3=O)NC(=O)[C@H](CCCCN)NC(=O)[C@H](CC(=O)O)NC(=O)[C@H](CC(N)=O)NC(=O)[C@H](CC(=O)O)NC(=O)[C@@H]2CCCN2C1=O` [compound 446] (H-DCLGFMRKCIPDNDKCCRPNLVCSRLHKWCKWVF-NH2; disulfide 2-17, 9-23, 16-30) was tested. Which IC50 ([1]; use-dependent block, hNav1.7) did it give?
Answer: Its IC50 is 0.04 µM.

Question: What about the IC50 ([2]; use-dependent block, hNav1.5) of the same compound?
Answer: The IC50 was > 5 µM.

Question: And the IC50 ([3]; use-dependent block, hNav1.3)?
Answer: The IC50 was 0.06 µM.

Question: Which IC50 ([1]; use-dependent block, hNav1.7) does the source give for `CC[C@H](C)[C@@H]1NC(=O)[C@@H]2CSSC[C@@H]3NC(=O)[C@H](C(C)C)NC(=O)[C@H](CC(C)C)NC(=O)[C@H](CC(N)=O)NC(=O)[C@@H]4CCCN4C(=O)[C@H](CCCNC(=N)N)NC(=O)[C@H](CSSC[C@H](NC(=O)[C@@H](N)CC(=O)O)C(=O)N[C@@H](CC(C)C)C(=O)NCC(=O)N[C@@H](C)C(=O)N[C@@H](Cc4ccccc4)C(=O)N[C@@H](CCCNC(=N)N)C(=O)N[C@@H](CCCCN)C(=O)N2)NC(=O)[C@H](CSSC[C@@H](C(=O)N[C@@H](CCCCN)C(=O)N[C@@H](Cc2ccc(O)cc2)C(=O)N[C@H](C(=O)N[C@@H](Cc2ccccc2)C(=O)O)C(C)C)NC(=O)[C@H](Cc2c[nH]c4ccccc24)NC(=O)[C@@H]2CCCN2C(=O)[C@H](Cc2c[nH]cn2)NC(=O)[C@H]([C@@H](C)O)NC(=O)[C@H](CCCNC(=N)N)NC(=O)[C@H](CO)NC3=O)NC(=O)[C@H](CCCCN)NC(=O)[C@H](CC(=O)O)NC(=O)[C@H](CC(N)=O)NC(=O)[C@H](CC(=O)O)NC(=O)[C@@H]2CCCN2C1=O` [compound 833] (H-DCLGAFRKCIPDNDKCCRPNLVCSRTHPWCKYVF-OH; disulfide 2-17, 9-23, 16-30) here?
Answer: Its IC50 is > 5 µM.

Question: What about the IC50 ([2]; use-dependent block, hNav1.5) of the same compound?
Answer: Its IC50 is > 5 µM.

Question: And the IC50 ([3]; use-dependent block, hNav1.3)?
Answer: Its IC50 is > 5 µM.
